Measured values from US10392368B2, “Pyrazolo and triazolo bicyclic compounds as JAK kinase inhibitors” (THERAVANCE BIOPHARMA R&D IP, LLC, priority 2017, dated 2019).
Like-named read-outs stand apart in the source and are kept apart here.

Key:
JAK1 = biological target: T1, JAK1 (Homo sapiens, UniProt P23458); assay: Biochemical JAK1 kinase assay (LanthaScreen); details: for Ki: read-out: JAK 1 (pKi) (converted)
T1 construct: GST; purchased Life Technologies
In short: (§1)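 TR-FRET readout (520/495 nm) using Tb-labelled pTyr701 antibody after EDTA stop, following 1 h ATP-started phosphorylation of GFP-STAT1 by recombinant GST-JAK. Compounds preincubated 1 h with enzyme and substrate; pIC50 from 4-parameter fit, Cheng-Prusoff gives pKi.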

JAK2 = biological target: T2, JAK2 (Homo sapiens, UniProt O60674); assay: Biochemical JAK2 kinase assay (LanthaScreen); details: for Ki: read-out: JAK 2 (pKi) (converted)
T2 construct: GST; purchased Life Technologies
T2 sequence (O60674 whole entry): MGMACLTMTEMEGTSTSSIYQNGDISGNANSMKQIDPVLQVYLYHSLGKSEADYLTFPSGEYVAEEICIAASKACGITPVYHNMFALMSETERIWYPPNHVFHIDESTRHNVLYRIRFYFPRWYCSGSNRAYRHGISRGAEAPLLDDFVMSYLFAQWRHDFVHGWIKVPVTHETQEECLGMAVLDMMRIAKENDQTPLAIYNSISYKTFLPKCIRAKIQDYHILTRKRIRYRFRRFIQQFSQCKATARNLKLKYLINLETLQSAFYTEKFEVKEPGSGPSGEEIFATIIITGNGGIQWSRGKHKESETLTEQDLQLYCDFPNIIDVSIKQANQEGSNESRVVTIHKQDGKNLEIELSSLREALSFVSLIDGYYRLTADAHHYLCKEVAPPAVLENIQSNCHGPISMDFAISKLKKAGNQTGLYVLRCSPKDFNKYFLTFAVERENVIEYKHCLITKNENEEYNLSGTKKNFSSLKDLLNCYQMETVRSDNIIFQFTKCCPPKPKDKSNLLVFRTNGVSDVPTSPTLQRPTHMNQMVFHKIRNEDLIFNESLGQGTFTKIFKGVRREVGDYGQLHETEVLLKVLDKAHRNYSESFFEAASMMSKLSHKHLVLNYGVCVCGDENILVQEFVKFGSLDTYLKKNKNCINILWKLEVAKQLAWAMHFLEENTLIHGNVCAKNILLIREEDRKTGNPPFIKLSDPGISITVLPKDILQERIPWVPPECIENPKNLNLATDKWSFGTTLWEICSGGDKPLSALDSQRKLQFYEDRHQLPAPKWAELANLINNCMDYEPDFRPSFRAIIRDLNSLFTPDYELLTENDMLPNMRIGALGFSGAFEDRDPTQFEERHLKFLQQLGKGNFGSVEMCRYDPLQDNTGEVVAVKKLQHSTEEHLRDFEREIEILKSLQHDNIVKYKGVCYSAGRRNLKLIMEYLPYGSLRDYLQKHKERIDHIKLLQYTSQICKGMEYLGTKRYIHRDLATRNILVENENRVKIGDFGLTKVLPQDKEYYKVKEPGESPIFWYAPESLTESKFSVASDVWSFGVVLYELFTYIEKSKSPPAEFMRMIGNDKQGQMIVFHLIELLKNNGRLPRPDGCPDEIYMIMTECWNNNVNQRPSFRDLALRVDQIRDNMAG
In short: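 GST-tagged recombinant JAK2 pre-incubated 1 h at ambient temperature with compound and GFP-STAT1 peptide in HEPES pH 7.5/MgCl2 buffer, then ATP added for a 1 h reaction with 1% DMSO. TR-FRET read after EDTA and Tb-anti-pSTAT1 (pTyr701) addition; IC50 from 4-parameter fit, converted to pKi by Cheng-Prusoff.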

Tyk2 = biological target: T3, Tyk2 (Homo sapiens, UniProt P29597); assay: Biochemical Tyk2 kinase assay (LanthaScreen); details: for Ki: read-out: Tyk 2 (pKi) (converted)
T3 construct: GST; purchased Life Technologies
T3 sequence (P29597 whole entry): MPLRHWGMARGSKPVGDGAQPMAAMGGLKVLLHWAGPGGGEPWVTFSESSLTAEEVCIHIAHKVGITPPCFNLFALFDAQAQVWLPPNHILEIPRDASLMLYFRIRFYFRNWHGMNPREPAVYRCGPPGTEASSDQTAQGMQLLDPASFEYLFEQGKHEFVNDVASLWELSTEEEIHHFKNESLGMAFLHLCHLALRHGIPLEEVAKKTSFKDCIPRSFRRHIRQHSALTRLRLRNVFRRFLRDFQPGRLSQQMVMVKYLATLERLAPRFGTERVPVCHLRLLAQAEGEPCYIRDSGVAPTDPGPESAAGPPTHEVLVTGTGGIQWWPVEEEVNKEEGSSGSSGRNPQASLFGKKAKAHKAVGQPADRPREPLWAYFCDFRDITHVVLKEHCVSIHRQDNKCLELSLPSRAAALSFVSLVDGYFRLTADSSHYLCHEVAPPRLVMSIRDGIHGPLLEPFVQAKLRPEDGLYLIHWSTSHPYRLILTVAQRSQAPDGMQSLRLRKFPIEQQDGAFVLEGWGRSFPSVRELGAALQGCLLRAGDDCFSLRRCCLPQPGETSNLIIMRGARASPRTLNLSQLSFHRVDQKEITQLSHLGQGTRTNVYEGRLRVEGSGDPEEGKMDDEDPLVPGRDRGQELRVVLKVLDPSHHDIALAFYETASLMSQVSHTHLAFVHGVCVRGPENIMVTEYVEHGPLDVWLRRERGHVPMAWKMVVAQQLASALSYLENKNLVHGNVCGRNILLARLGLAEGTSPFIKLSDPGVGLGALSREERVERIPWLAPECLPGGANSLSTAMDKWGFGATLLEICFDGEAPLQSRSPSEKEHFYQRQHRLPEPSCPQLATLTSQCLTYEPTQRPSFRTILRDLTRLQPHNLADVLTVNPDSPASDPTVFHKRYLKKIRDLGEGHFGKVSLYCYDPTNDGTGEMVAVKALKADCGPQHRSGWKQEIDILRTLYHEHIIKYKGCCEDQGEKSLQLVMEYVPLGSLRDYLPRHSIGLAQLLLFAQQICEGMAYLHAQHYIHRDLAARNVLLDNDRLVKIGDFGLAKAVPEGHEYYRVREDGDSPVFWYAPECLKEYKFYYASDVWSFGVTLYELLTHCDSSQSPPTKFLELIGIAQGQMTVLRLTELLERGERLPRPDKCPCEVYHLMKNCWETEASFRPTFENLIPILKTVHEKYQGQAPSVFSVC
In short: as §1

[1] = test system: IL-2 stimulated pSTAT5 in Tall-1 T cells; assay: Cellular JAK3 potency assay: inhibition of IL-2 stimulated pSTAT5 in Tall-1 T cells; assay type: cell-based, human; details: for IC50: Homo sapiens, read-out: Tall-1 (pIC50) (converted)
In short: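 Tall-1 human T cells (45,000/well) in phenol red-free DMEM with 10% FBS were preincubated with compound 1 h at 37 °C, then stimulated with IL-2 (final 300 ng/ml) for 30 min. Lysate pSTAT5 read by AlphaLisa; IC50 from inhibition curves, reported as pIC50 (mean±SD).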

JAK3 = biological target: T4, JAK3 (Homo sapiens, UniProt P52333); assay: Biochemical JAK3 kinase assay (LanthaScreen); parameters: GST; purchased Life Technologies; details: for Ki: read-out: JAK 3 (pKi) (converted)
T4 sequence (P52333 1-1124): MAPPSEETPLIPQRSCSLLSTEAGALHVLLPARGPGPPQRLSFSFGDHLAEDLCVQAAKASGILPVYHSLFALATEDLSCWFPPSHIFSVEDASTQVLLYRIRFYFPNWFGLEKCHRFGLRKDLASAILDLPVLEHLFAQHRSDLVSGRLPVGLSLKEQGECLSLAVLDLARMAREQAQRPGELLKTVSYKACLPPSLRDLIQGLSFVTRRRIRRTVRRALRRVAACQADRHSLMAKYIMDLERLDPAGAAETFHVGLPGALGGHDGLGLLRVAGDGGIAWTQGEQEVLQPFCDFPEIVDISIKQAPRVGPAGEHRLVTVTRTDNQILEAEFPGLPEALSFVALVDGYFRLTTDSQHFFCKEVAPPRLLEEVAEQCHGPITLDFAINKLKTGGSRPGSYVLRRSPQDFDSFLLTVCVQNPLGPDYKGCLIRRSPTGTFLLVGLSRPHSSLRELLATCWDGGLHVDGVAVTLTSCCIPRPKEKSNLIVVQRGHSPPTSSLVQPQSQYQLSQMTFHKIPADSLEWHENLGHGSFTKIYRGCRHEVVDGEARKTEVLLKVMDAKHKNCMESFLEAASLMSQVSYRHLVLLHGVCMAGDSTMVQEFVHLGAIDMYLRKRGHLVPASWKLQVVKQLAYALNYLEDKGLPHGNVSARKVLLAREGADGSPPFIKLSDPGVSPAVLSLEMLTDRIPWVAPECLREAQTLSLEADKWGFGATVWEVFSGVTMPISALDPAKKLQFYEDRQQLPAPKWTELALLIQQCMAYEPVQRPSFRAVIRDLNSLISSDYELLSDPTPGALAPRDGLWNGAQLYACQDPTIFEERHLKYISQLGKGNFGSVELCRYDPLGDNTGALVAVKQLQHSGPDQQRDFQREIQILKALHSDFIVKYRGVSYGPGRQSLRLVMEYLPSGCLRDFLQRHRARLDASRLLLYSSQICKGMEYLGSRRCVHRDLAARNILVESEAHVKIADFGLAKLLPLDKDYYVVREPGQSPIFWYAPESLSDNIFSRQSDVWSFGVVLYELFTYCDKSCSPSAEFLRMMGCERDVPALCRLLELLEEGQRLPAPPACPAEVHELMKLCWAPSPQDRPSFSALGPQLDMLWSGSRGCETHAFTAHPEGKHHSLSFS
In short: as §1

[2] = IL-2 stimulated pSTAT5 in Tall-1 T cells
[3] = selectivity: difference of pKi JAK3 and pKi JAK1
[4] = TALL-1, IL-2 stimulated pSTAT5 in Tall-1 T cells
[5] = IL-2 stimulated pSTAT5, Tall-1 T cells
[6] = selectivity JAK3 over JAK1, difference of pKi
[7] = TALL-1, IL-2 stimulated pSTAT5, Tall-1 T cells

T1 sequence (P23458 whole entry): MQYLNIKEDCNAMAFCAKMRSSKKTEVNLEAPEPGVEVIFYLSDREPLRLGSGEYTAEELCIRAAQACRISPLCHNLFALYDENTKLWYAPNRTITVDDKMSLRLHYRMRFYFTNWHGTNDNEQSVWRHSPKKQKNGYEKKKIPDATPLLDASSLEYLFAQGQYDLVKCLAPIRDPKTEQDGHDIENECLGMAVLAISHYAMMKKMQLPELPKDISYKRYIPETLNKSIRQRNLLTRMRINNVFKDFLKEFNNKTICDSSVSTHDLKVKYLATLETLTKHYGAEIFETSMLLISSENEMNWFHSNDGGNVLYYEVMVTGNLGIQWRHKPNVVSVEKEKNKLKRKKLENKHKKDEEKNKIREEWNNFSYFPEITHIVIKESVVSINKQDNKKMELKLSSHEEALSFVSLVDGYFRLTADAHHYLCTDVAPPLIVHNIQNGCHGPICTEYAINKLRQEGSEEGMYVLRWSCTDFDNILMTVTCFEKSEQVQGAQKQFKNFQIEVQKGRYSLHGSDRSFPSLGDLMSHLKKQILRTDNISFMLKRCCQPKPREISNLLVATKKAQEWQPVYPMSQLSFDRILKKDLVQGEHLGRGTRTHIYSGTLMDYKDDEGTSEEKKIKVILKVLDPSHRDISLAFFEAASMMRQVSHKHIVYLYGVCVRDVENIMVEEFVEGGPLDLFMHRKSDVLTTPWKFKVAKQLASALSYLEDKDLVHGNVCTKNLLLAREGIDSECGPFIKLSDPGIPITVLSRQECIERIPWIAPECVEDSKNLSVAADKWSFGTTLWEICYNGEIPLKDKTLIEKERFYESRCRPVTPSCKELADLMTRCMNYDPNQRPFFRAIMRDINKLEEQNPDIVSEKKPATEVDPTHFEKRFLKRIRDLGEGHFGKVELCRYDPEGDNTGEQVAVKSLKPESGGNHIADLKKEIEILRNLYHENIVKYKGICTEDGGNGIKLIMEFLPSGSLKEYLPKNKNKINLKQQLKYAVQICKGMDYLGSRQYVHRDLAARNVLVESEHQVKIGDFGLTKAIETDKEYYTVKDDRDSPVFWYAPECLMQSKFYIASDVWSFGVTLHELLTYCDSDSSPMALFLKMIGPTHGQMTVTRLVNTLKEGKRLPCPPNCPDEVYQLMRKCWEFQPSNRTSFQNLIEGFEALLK

| SMILES | JAK 1 (pKi) (JAK1) | JAK 2 (pKi) (JAK2) | Tyk 2 (pKi) (Tyk2) | Tall-1 (pIC50) [1, 2] | JAK 3 (pKi) (JAK3) | JAK3 (pKi)-JAK1 (pKi) (JAK3; [3]) | Ki (JAK1) [nM] | Ki (JAK2) [nM] | Ki (Tyk2) [nM] | IC50 [1, 4] [nM] | Ki (JAK3) [nM] | Tall-1 (pIC50) [1, 5] | JAK3 (pKi)-JAK1 (pKi) (JAK3; [6]) | IC50 [1, 7] [nM] |
| --- | --- | --- | --- | --- | --- | --- | --- | --- | --- | --- | --- | --- | --- | --- |
| C=CC(=O)N1CC[C@H](COc2nc(-c3ccc(O)c(F)c3)cc3[nH]ncc23)C1 [Compound 2-10] | E (a pKi value of 7 or below (Ki of 100 nM or above)) | D (a pKi value between 7 and 8 (Ki between 100 nM and 10 nM)) | E (a pKi value of 7 or below (Ki of 100 nM or above)) | A (a pIC50 value≥7.5 (IC50≤32 nM)) | B (a pKi value between 9 and 10 (Ki between 1 nM and 0.1 nM)) | A (a value of 3 or above) |  |  |  |  |  |  |  |  |
| C=CC(=O)N1CC[C@H](Oc2cc(-c3cc(F)c(O)cc3F)cc3[nH]ncc23)C1 [Compound 1-19] | E (a pKi value of 7 or below (Ki of 100 nM or above)) | D (a pKi value between 7 and 8 (Ki between 100 nM and 10 nM)) | E (a pKi value of 7 or below (Ki of 100 nM or above)) | B (a pIC50 value between 6.7 (included) and 7.5 (IC50 between 200 nM and 32 nM)) | B (a pKi value between 9 and 10 (Ki between 1 nM and 0.1 nM)) | A (a value of 3 or above) |  |  |  |  |  |  |  |  |
| C=CC(=O)N1CC(C)(Oc2cc(-c3ccc(O)cc3)cc3[nH]ncc23)C1 [Compound 5-12] | E (a pKi value of 7 or below (Ki of 100 nM or above)) | E (a pKi value of 7 or below (Ki of 100 nM or above)) | E (a pKi value of 7 or below (Ki of 100 nM or above)) | B (a pIC50 value between 6.7 (included) and 7.5 (IC50 between 200 nM and 32 nM)) | B (a pKi value between 9 and 10 (Ki between 1 nM and 0.1 nM)) | A (a value of 3 or above) |  |  |  |  |  |  |  |  |
| C=CC(=O)N1CC[C@H](Oc2nc(-c3ccc(O)c(F)c3)cc3[nH]nc(C)c23)C1 [Compound 1-36] |  |  |  |  |  | B (a value of 2.3 to 3) | 10 to 100 | 10 to 100 | > 100 | < 31.6 | 0.1 to 1 |  |  |  |
| C=CC(=O)N1CCC(C)(Nc2nc(-c3ccc(O)c(Cl)c3)cc3[nH]ncc23)CC1 [Compound 7-14] | E (a pKi value of 7 or below (Ki of 100 nM or above)) | D (a pKi value between 7 and 8 (Ki between 100 nM and 10 nM)) | E (a pKi value of 7 or below (Ki of 100 nM or above)) |  | B (a pKi value between 9 and 10 (Ki between 1 nM and 0.1 nM)) |  |  |  |  |  |  | A (a pIC50 value≥7.5 (IC50≤32 nM)) | B (a value of 2.3 to 3) |  |
| C=CC(=O)N1CC2(CCC2Oc2cc(-c3ccc(O)cc3)cc3[nH]ncc23)C1 (stereo not drawn) [Compound 12-54] |  |  |  |  |  |  | > 100 | 10 to 100 | > 100 |  | 0.1 to 1 |  | B (a value of 2.3 to 3) | < 31.6 |
| C=CC(=O)N1CC(COc2cc(-c3ccc(O)c(Cl)c3)nc3[nH]ncc23)C1 [Compound 3-86] |  |  |  |  |  | A (a value of 3 or above) | > 100 | > 100 | > 100 | 31.6 to 200 | < 0.1 |  |  |  |
| C=CC(=O)N1CC[C@H](Oc2cc(-c3ccc(O)cc3)cc3[nH]ncc23)C[C@@H]1C [Compound 12-31] |  |  |  |  |  |  | > 100 | 1 to 10 | > 100 |  | < 0.1 |  | A (a value of 3 or above) | 31.6 to 200 |
| CC1C(COc2cc(-c3ccc(O)cc3)cc3[nH]ncc23)CN1C(=O)/C=C/CN(C)C (stereo not drawn) [Compound 3-30] | E (a pKi value of 7 or below (Ki of 100 nM or above)) | D (a pKi value between 7 and 8 (Ki between 100 nM and 10 nM)) | E (a pKi value of 7 or below (Ki of 100 nM or above)) | B (a pIC50 value between 6.7 (included) and 7.5 (IC50 between 200 nM and 32 nM)) | A (a pKi value≥10 (Ki≤0.1 nM)) | A (a value of 3 or above) |  |  |  |  |  |  |  |  |
| C=CC(=O)N1CCC[C@H](Oc2nc(-c3ccc(O)c(F)c3)cc3[nH]ncc23)C1 [Compound 8-11] | D (a pKi value between 7 and 8 (Ki between 100 nM and 10 nM)) | D (a pKi value between 7 and 8 (Ki between 100 nM and 10 nM)) | E (a pKi value of 7 or below (Ki of 100 nM or above)) |  | A (a pKi value≥10 (Ki≤0.1 nM)) |  |  |  |  |  |  | A (a pIC50 value≥7.5 (IC50≤32 nM)) | B (a value of 2.3 to 3) |  |
| CN(C)C/C=C/C(=O)N1CC(COc2cc(-c3ccc(O)c(Cl)c3)cc3[nH]ncc23)C1 [Compound 3-2] |  |  |  |  |  | A (a value of 3 or above) | > 100 | > 100 | > 100 | 31.6 to 200 | 0.1 to 1 |  |  |  |
| C=CC(=O)N1CC(COc2cc(-c3ccc(O)cc3)cc3[nH]nnc23)C1 [Compound 17-1] | E (a pKi value of 7 or below (Ki of 100 nM or above)) | E (a pKi value of 7 or below (Ki of 100 nM or above)) | E (a pKi value of 7 or below (Ki of 100 nM or above)) |  | B (a pKi value between 9 and 10 (Ki between 1 nM and 0.1 nM)) |  |  |  |  |  |  | B (a pIC50 value between 6.7 (included) and 7.5 (IC50 between 200 nM and 32 nM)) | A (a value of 3 or above) |  |
| C=CC(=O)N1CC(COc2cc(-c3ccc(O)cc3)nc3[nH]ncc23)C1 [Compound 10, 1-(3-(((6-(4-hydroxyphenyl)-1H-pyrazolo[3,4-b]pyridin-4-yl)oxy)methyl)azetidin-1-yl)prop-2-en-1-one] |  |  |  |  |  | A (a value of 3 or above) | > 100 | > 100 | > 100 | 31.6 to 200 | < 0.1 |  |  |  |
| C=CC(=O)N1CC(C)(COc2cc(-c3ccc(O)cc3)cc3[nH]ncc23)C1 [Compound 3-8] | E (a pKi value of 7 or below (Ki of 100 nM or above)) | E (a pKi value of 7 or below (Ki of 100 nM or above)) | E (a pKi value of 7 or below (Ki of 100 nM or above)) | A (a pIC50 value≥7.5 (IC50≤32 nM)) | B (a pKi value between 9 and 10 (Ki between 1 nM and 0.1 nM)) | A (a value of 3 or above) |  |  |  |  |  |  |  |  |
| COC1CCCN(C/C=C/C(=O)N2CC(COc3cc(-c4ccc(O)cc4)cc4[nH]ncc34)C2)C1 (stereo not drawn) [Compound 3-128] |  |  |  |  |  | A (a value of 3 or above) | > 100 | 0.1 to 1 | > 100 | 31.6 to 200 | < 0.1 |  |  |  |
| CN1CCC[C@@H]1/C=C/C(=O)N1CC(COc2cc(-c3ccc(O)cc3)cc3[nH]ncc23)C1 [Compound 3-85] |  |  |  |  |  | A (a value of 3 or above) | > 100 | 10 to 100 | > 100 | < 31.6 | < 0.1 |  |  |  |
| C=CC(=O)N1CC[C@H](Oc2cc(-c3ccc(O)cc3)cc3[nH]nc(NC)c23)C1 [Compound 1-21] |  |  |  |  |  | A (a value of 3 or above) | > 100 | > 100 | > 100 | 31.6 to 200 | 0.1 to 1 |  |  |  |
